This is an account of results in article PMC9194936, “Preclinical Activity and Pharmacokinetic/Pharmacodynamic Relationship for a Series of Novel Benzenesulfonamide Perforin Inhibitors” (ACS Pharmacology & Translational Science, 2022).

Data set [1] can be described thus: One-compartment pharmacokinetic model simulations. Also on record: species or system mouse. The procedure:
For determination of plasma concentrations of 1, C57BL/6 mice were treated with a single dose of 1 at four different dose levels (160, 120, 80, and 10 mg/kg) and blood samples were collected at multiple timepoints after dosing. Overall, the pharmacokinetics followed a dose-dependent relationship that was close to linear (Figure 3A). […] To confirm the accuracy of the simulations, C57BL/6 mice were treated intraperitoneally with 80, 120, or 160 mg/kg dose of 1 and the resulting plasma concentrations were evaluated at multiple time points within a 24 h period after one (0 h), two (0, 18 h) or three (0, 9 h, 18 h) doses.
Given the high concentrations required, there is potential for saturation of plasma protein binding to occur, where small dose increments could cause large increases in unbound concentrations.[35]
Test samples were diluted up to 100-fold in blank plasma as necessary and quantitated against a calibration curve of known analyte concentrations ranging from 3 nM to 30 μM in an appropriate matrix and quality controls at 0.03, 0.3, 3, and 30 μM. Pharmacokinetic parameters were evaluated using noncompartmental analysis and pharmacokinetic simulations using one-compartment analysis on Phoenix WinNonlin version 6.2 (Certara, Princeton, NJ). Multiple-dose simulations were generated from parameters derived from single-dose simulations.

A short description of data set [2]: KHYG-1 viability (Trypan Blue exclusion). The data set is classed as cell-based. Conditions: human, KHYG-1 NK cells, at 20 μM. The procedure: The toxicity of perforin inhibitors toward KHYG-1 NK cells was determined as described previously.[14] KHYG-1 cells were preincubated with compounds in the same manner as the KHYG-1 cytotoxicity assay prior to the addition of RPMI with 0.1% BSA and incubation at 37 °C for 4 h. The cells were then washed and resuspended in complete medium and incubated for a further 24 h at 37 °C, after which cell viability was assessed by Trypan Blue (Thermo Fisher Scientific) exclusion.

The viability is a per cent measure of how many cells are alive, often set against a control. Higher therefore signals better survival.

With `CN1Cc2cc(-c3ccc(-c4cncc(NS(=O)(=O)c5ccccc5[N+](=O)[O-])c4)s3)ccc2C1=O` [Compound 1, N-{5-[5-(2-methyl-1-oxo-2,3-dihydro-1H-isoindol-5-yl)-2-thienyl]-3-pyridinyl}-2-nitrobenzenesulfonamide], the “duration that plasma concentration achieved 350 μM” value in data set [1] (80 mg/kg three-dose schedule) is given as 14.9 h; in data set [1] (two doses of 120 mg/kg) it was 12.0 h; in data set [1] (two doses of 160 mg/kg), 13.4 h.

On to `O=C1NCc2ccc(-c3ccc(-c4cncc(NS(=O)(=O)c5ccc(F)cc5F)c4)s3)cc21` [Compound 7, 2,4-difluoro-N-{5-[5-(3-oxo-2,3-dihydro-1H-isoindol-5-yl)-2-thienyl]-3-pyridinyl}benzenesulfonamide], for which, in data set [2], the viability at 24 h, 20 µM was determined as 96 ± 6%.
